Like-named read-outs stand apart in the source and are kept apart here.
Legend:
[1] = molecular target: T1, human isoform of histamine H3 receptor (hH3R) (Homo sapiens, UniProt Q9Y5N1); test: [3H]Nα-methylhistamine displacement at hH3R, membranes of transfected HEK-293T cells; assay type: binding
T1 construct: expressed in transfected cells; host or cells: HEK-293T
Method: NM_007232.3) was determined in radioligand displacement studies at membrane preparations of transfected HEK-293 T cells. […] The workflow to terminate incubation and measurement of bound radioligand was identical for both experimental set-ups. Briefly, samples were filtrated from microplates onto GF/B filters presoaked with 0.3% polyethyleneimine solution using a 96-well cell harvester. Filter mats were washed three times with water at 4 °C, dried for 60 min (54 °C), soaked with scintillation liquid (Betaplate Scint, PerkinElmer), sealed and subjected to scintillation counting. For experiments employing radiolabeled ligands, raw data that were measured as counts-per-minute [c.p.m.] were reduced by non-specific binding. For affinity measurements, such results were fitted to least-squares method “One site competition” of GraphPad Prism version 7.0 (La Jolla, CA, United States) and final values were calculated as means [95% confidence interval]. […] Data were stated as means ± s.d. […] Data were stated as means ± s.d. with the indicated number of replicates. […] Data from both experiments were globally fit to the “Gaddum/Schild EC50 shift” model of GraphPad Prism and were stated as means [95% confidence interval].

[2] = molecular target: T2, rat isoform of H3R (rH3R) (Rattus norvegicus, UniProt Q9QYN8); test: CRE-Luc reporter gene Schild assay at rH3R in HEK-293T cells; assay type: cell-based
T2 construct: expressed in transfected cells; host or cells: HEK-293T
Method: The mixture was incubated for 5 h under culture conditions. […] Lysed homogenate was transferred into white microplates. […] For experiments employing radiolabeled ligands, raw data that were measured as counts-per-minute [c.p.m.] were reduced by non-specific binding. […] Data were stated as means ± s.d. […] Data were stated as means ± s.d. with the indicated number of replicates.

G9a = molecular target: T3, G9a (Homo sapiens, UniProt Q96KQ7); test: AlphaLISA based G9a methyltransferase inhibition screening (H3K9 dimethylation); assay type: biochemical
T3 construct: purchased Sigma-Aldrich
T3 sequence (Q96KQ7 1-1210): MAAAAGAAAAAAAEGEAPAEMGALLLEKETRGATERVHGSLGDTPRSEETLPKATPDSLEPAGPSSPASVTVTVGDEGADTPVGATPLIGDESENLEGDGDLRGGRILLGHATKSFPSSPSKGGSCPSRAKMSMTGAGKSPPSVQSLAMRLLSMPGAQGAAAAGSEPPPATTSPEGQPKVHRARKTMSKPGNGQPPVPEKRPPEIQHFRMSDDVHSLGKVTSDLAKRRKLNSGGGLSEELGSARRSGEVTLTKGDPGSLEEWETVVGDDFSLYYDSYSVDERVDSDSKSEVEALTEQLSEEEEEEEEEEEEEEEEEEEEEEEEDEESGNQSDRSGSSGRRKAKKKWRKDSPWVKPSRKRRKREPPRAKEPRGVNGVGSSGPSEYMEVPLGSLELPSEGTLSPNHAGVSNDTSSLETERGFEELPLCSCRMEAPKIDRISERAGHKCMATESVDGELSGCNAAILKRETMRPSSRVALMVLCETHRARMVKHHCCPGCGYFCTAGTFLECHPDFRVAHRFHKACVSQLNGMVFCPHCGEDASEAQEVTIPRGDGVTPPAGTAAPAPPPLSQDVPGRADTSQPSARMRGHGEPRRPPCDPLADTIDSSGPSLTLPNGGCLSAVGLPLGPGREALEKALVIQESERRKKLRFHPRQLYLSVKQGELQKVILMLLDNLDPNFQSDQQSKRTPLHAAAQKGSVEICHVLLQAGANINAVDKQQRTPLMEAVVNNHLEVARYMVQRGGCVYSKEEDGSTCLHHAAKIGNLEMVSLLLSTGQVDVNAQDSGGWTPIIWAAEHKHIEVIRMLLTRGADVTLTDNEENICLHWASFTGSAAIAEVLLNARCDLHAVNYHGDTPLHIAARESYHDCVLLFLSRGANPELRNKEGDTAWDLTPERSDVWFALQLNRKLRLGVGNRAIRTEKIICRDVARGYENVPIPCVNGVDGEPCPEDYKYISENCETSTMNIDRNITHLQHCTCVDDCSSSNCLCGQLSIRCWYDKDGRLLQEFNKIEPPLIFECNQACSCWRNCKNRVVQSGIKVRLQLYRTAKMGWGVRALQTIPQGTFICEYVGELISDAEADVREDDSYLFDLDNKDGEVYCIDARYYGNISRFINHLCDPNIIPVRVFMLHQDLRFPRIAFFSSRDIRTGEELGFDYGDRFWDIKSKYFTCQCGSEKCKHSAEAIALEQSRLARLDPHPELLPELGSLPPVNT
Method: Inhibition of G9a was examined in an AlphaLISA based format with protocols provided by PerkinElmer. In brief, compounds were incubated for 30 min on white 384-well microplates at the indicated concentration and with 5 nM G9a (Supplementary Information, Figure S1), 100 nM histone H3 (1–21) fragment and 15 µM SAM in assay buffer (50 mM Tris–HCl (pH = 9.0); 50 mM NaCl, 1 mM dithiothreitol, 0.01% Tween-20). Incubation was terminated by addition of anti-H3K9me2 acceptor beads in provided detection buffer. After incubating the mixture for 60 min, streptavidin-coated donor beads were added to the mix for additional 30 min. Luminescence was then measured using the AlphaLISA luminescence filter of an Infinite M1000pro multiplate reader (Tecan, Maennedorf, Switzerland) for 1,000 ms (integration time).
For experiments employing radiolabeled ligands, raw data that were measured as counts-per-minute [c.p.m.] were reduced by non-specific binding. For affinity measurements, such results were fitted to least-squares method “One site competition” of GraphPad Prism version 7.0 (La Jolla, CA, United States) and final values were calculated as means [95% confidence interval]. […] Data were stated as means ± s.d. […] Data were stated as means ± s.d. with the indicated number of replicates. For CRE-Luc assays, data were normalized to luminescence derived by forskolin containing samples (= 100%) and minimum luminescence measured in samples containing forskolin + N^α-methylhistamine (10 µM) (= 0%). Data from both experiments were globally fit to the “Gaddum/Schild EC50 shift” model of GraphPad Prism and were stated as means [95% confidence interval].

Spindlin1 = Spindlin1 (Homo sapiens, UniProt Q9Y657); test: Spindlin1 inhibition, fluorescence polarization displacement assay; assay type: binding; settings: for Spindlin1 inhibition: fluorescence polarization-based screening
Method: Spindlin1 inhibition was determined using the fluorescence polarization displacement assay described by Wagner et al.[37] For the IC50 values, 12 concentrations were measured in triplicates.

Sequence of Spindlin1 (Q9Y657 whole entry, species assumed): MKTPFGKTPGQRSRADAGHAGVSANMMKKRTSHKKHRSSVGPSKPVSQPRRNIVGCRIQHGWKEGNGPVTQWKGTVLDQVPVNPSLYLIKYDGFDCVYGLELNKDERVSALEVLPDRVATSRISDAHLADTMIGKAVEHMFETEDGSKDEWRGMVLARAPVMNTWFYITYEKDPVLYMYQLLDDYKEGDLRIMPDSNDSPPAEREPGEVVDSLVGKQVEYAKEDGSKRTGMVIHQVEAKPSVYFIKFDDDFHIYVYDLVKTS
T2 sequence (Q9QYN8 whole entry, canonical isoform): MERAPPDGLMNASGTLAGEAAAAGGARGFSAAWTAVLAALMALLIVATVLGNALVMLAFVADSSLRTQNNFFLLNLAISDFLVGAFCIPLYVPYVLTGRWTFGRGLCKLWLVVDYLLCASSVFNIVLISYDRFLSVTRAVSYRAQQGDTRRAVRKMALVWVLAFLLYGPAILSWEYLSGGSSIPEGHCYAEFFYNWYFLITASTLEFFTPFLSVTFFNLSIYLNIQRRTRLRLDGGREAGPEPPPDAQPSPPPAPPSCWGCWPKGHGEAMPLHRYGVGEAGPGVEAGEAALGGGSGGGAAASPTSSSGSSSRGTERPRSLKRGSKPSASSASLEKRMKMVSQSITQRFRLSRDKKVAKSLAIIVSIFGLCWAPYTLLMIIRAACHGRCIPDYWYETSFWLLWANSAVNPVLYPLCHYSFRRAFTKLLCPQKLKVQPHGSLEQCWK
T1 sequence (Q9Y5N1 whole entry, canonical isoform): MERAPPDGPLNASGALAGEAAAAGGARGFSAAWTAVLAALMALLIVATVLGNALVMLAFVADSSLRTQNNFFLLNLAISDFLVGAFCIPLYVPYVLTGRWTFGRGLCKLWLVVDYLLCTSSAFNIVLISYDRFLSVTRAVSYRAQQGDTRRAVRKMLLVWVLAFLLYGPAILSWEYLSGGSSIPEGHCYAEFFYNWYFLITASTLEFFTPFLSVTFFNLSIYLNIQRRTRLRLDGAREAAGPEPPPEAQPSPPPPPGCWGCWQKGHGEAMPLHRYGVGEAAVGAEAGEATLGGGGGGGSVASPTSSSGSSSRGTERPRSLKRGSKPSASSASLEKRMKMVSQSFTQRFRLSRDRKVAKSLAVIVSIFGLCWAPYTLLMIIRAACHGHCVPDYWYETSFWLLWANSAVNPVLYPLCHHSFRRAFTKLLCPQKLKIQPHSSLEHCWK

| Structure (SMILES) | Spindlin1 inhibition (Spindlin1) | inhibition at 10 µM (G9a) [%] | other results |
| --- | --- | --- | --- |
| COc1cc2c(cc1OCCCN1CCCC1)N=C(N)C21CCC1 [A-366] | – | 100 ± 0.04 | Ki ([1]; [3H]Nα-methylhistamine 2 nM, 90 min, mean [95% CI], read-out: hH3R affinity Ki [CI95%]): 17 nM; Kb [2]: 15 nM; Schild-plot slope ([2]; rH3R, mean ± 95% confidence interval, not significantly different from unity): 0.79 ± 0.45 |
| COc1cc2c(NC3CCN(C(C)C)CC3)nc(N3CCC(F)(F)CC3)nc2cc1OCCCN1CCCC1 [UNC-0642] | – | 99.9 ± 0.09 | Ki [1]: 1.8 nM; IC50 (Spindlin1; fluorescence polarization, 12 concentrations in triplicates): 2700 nM |

The next lines start with results.

| Spindlin1 inhibition (Spindlin1) | Structure (SMILES) | inhibition at 10 µM (G9a) [%] | other results |
| --- | --- | --- | --- |
| No inhibition | O=C(c1ccc(OCCCc2cnc[nH]2)cc1)C1CC1 [Ciproxifan] | – | – |
| No inhibition | Clc1ccc(CCCOCCCN2CCCCC2)cc1 [Pitolisant] | – | – |
| No inhibition | O=C(c1ccc(OCCCN2CCCCC2)cc1)C1CC1 [UCL-2190] | 13.9 ± 9.3 | – |

— article PMC7419559 (Scientific Reports, 2020)
